Consider 2 compounds from patent US9700552B2, “Pharmaceutical compositions for treatment of addiction” (priority 2008, dated 2017).

Like-named read-outs stand apart in the source and are kept apart here.

For data set [1] the following is noted: in vivo; cited from earlier work.
Data set [2] in a line: Solubility of naltrexone in adhesive matrix. The class given is physicochemical. The source says: […]. Adhesive matrices having such Hildebrand solubility parameters are typically, although not necessarily polyacrylate copolymers. […].
The conditions of data set [3]: in vivo, cited from earlier work.

As for `Oc1ccc2c3c1O[C@H]1[C@H](O)CC[C@@]4(O)[C@@H](C2)N(CC2CC2)CC[C@]314` [6-β-naltrexol], the mean elimination half-life result in data set [1] is reported as “thirteen”.
`O=C1CC[C@@]2(O)[C@H]3Cc4ccc(O)c5c4[C@@]2(CCN3CC2CC2)[C@H]1O5` [naltrexone]: the “solubility of naltrexone in adhesive” value is recorded as 5.851 g/100 g of polymer in data set [2] (in DURO-TAK® 87-900A) and 3.067 g/100 g of polymer in data set [2] (in DURO-TAK® 87-2510). Moreover, the safety statement result in data set [3] was “major liver toxin”; in data set [3] (listed as Naltrexone) it was “very few and minor side effects”.
